# In patent publication US20130108563A1, “COMPOSITIONS COMPRISING AT LEAST ONE AQUEOUS PHASE AND AT LEAST ONE FATTY PHASE WHICH COMPRISES AVERMECTIN COMPOUNDS” (Galderma S.A., priority 2006, published 2013):
# How the values were obtained:
# [1] = Maximum solubility of ivermectin in oily-phase excipients; format: physicochemical; conditions: T1 hour, ambient temperature
# Description: (§1) Maximum solubility of ivermectin at T1 hour at ambient temperature (AT) in various oily-phase excipients and 1 month stability at AT and T40° C.
# [2] = 1-month stability of ivermectin in oily-phase excipients; format: physicochemical
# Description: as §1
substance,measurement,setting,value
ivermectin,Maximum solubility of ivermectin % (w/w),[1]; in C12-C15 alkyl benzoate,1.6 % (w/w)
same,Maximum solubility of ivermectin % (w/w),[1]; in Diisopropyl adipate,10.4 % (w/w)
same,Maximum solubility of ivermectin % (w/w),[1]; in Guerbet alcohol,2.5 % (w/w)
same,Maximum solubility of ivermectin % (w/w),[1]; in PPG 15 stearyl ether,3.3 % (w/w)
same,1-month stability at 40° C.,[2]; in Diisopropyl adipate,Stable
same,1-month stability at AT,[2]; in Diisopropyl adipate,Stable
same,1-month stability at 40° C.,[2]; in PPG 15 stearyl ether,Stable
same,1-month stability at AT,[2]; in PPG 15 stearyl ether,Stable
